Measured values published in paper PMC3472760, “New 14-Membered Cyclopeptide Alkaloids from Zizyphus oxyphylla Edgew” (International Journal of Molecular Sciences, 2012).

What was measured:
[1] = system: Escherchia coli (ATCC 25922); assay: Antibacterial MIC, microplate dilution with tetrazolium violet; assay type: cell-based, Escherichia coli; details: compounds in DMSO serially diluted with sterile water in microplates, overnight, 37 °C, 100% relative humidity, tetrazolium violet read-out, lowest concentration inhibiting growth
Method: (§1) All compounds were screened for antibacterial activity against Escherchia coli (ATCC 25922), Bacillus subtilis (ATCC 6633), Shigella flexeneri (clinical isolate), Staphylococcus aureus (ATCC 25923), Pseudomonas aeruginosa (ATCC 27853), and Salmonella typhi (ATCC 19430), according to the method as reported previously. The disc diffusion technique was used to determine the antibacterial activity of the test compounds. The compounds were dissolved in DMSO to obtain a 10 mg/mL solution. A known volume ([…]) of the solution was applied on to the sterilized filter paper discs with the help of a micropipette. The discs were dried at room temperature overnight and stored in sterile dry containers. Discs, soaked with […] of DMSO, and air dried at room temperature, were used as negative control. Bacterial cultures were grown in a nutrient broth medium at 37 °C overnight and spread on to solidified nutrient agar medium in Petri plates using sterilized cotton swabs in a standard microbiological working environment. Test and control discs were then applied to the solidified medium surface with the help of sterilized forceps. The plates were incubated at 37 °C for 12–15 h. The results were recorded by measuring the zone of inhibition in mm against each compound. Impenem was used as standard drug. MIC was calculated as previously reported. Compounds were briefly dissolved in DMSO and serially diluted with sterile water in microplates in a laminar flow cabinet. The same volume of an actively rowing culture of the test bacteria was added to the different wells and cultures were grown overnight in 100% relative humidity at 37 °C. The next morning, tetrazolium violet was added to all the wells. Growth was indicated by a violet color of the culture. The lowest concentration of the test solution that led to an inhibition of growth was taken as the MIC. The negative control DMSO had no influence on the growth at the highest concentration used. Impenem was used as controls for comparison (See Table 1).

[2] = system: Bacillus subtilis (ATCC 6633); assay: as above; assay type: cell-based; details: compounds in DMSO serially diluted with sterile water in microplates, overnight, 37 °C, 100% relative humidity, tetrazolium violet read-out
Method: as §1

[3] = system: Pseudomonas aeruginosa (ATCC 27853); assay: as above; assay type: cell-based; details: compounds in DMSO serially diluted with sterile water in microplates, overnight, 37 °C, 100% relative humidity, tetrazolium violet read-out
Method: as §1

[4] = system: Salmonella typhi (ATCC 19430); assay: as above; assay type: cell-based; details: compounds in DMSO serially diluted with sterile water in microplates, overnight, 37 °C, 100% relative humidity, tetrazolium violet read-out
Method: as §1

[5] = system: Shigella flexeneri (clinical isolate); assay: as above; assay type: cell-based; details: compounds in DMSO serially diluted with sterile water in microplates, overnight, 37 °C, 100% relative humidity, tetrazolium violet read-out
Method: as §1

[6] = system: Staphylococcus aureus (ATCC 25923); assay: as above; assay type: cell-based; details: compounds in DMSO serially diluted with sterile water in microplates, overnight, 37 °C, 100% relative humidity, tetrazolium violet read-out
Method: as §1

[7] = system: tested bacterial pathogens; assay: Antibacterial activity, overall verdict over the panel; assay type: cell-based; details: verdict over the six tested bacterial pathogens of Table 2
Method: as §1

CCC(C)C1NC(=O)C2C(CCN2C(=O)C(Cc2c[nH]c3ccccc23)N(C)C)Oc2ccc(OC)c(c2)/C=C/NC1=O (stereo not drawn) [Compound 3, nummularin-R]
Minimum Inhibitory Concentration (MIC), Escherichia coli [1]: 25 µg/mL
Minimum Inhibitory Concentration (MIC), Bacillus subtilis [2]: 10 µg/mL
Minimum Inhibitory Concentration (MIC), Pseudomonas aeruginosa [3]: 100 µg/mL
Minimum Inhibitory Concentration (MIC), Salmonella typhi [4]: 50 µg/mL
Minimum Inhibitory Concentration (MIC), Shigella flexeneri [5]: 100 µg/mL
Minimum Inhibitory Concentration (MIC), Staphylococcus aureus [6]: 50 µg/mL
Antibacterial activity (in words) [7]: low antibacterial activities

C[C@@H](O)[C@H]1C(=O)N2C(C(=O)O)=C(SCCN=CN)C[C@H]12 [Standard, Impenem, reference compound]
Minimum Inhibitory Concentration (MIC), Escherichia coli [1]: 0.0002 µg/mL
Minimum Inhibitory Concentration (MIC), Bacillus subtilis [2]: 0.0005 µg/mL
Minimum Inhibitory Concentration (MIC), Pseudomonas aeruginosa [3]: 0.0021 µg/mL
Minimum Inhibitory Concentration (MIC), Salmonella typhi [4]: 0.0014 µg/mL
Minimum Inhibitory Concentration (MIC), Shigella flexeneri [5]: 0.0003 µg/mL
Minimum Inhibitory Concentration (MIC), Staphylococcus aureus [6]: 0.0009 µg/mL

Oxyphylline B [Compound 4]
Minimum Inhibitory Concentration (MIC), Escherichia coli [1]: 5 µg/mL
Minimum Inhibitory Concentration (MIC), Pseudomonas aeruginosa [3]: 50 µg/mL
Minimum Inhibitory Concentration (MIC), Salmonella typhi ([4]; listed as Oxyphylline B (4)): 50 µg/mL
Minimum Inhibitory Concentration (MIC), Shigella flexeneri [5]: 25 µg/mL
Minimum Inhibitory Concentration (MIC), Staphylococcus aureus [6]: 25 µg/mL

Oxyphylline C [Compound 5]
Minimum Inhibitory Concentration (MIC), Escherichia coli [1]: 10 µg/mL
Minimum Inhibitory Concentration (MIC), Bacillus subtilis [2]: 50 µg/mL
Minimum Inhibitory Concentration (MIC), Pseudomonas aeruginosa [3]: 50 µg/mL
Minimum Inhibitory Concentration (MIC), Salmonella typhi [4]: 50 µg/mL
Minimum Inhibitory Concentration (MIC), Shigella flexeneri [5]: 50 µg/mL
Minimum Inhibitory Concentration (MIC), Staphylococcus aureus [6]: 10 µg/mL
Antibacterial activity (in words) [7]: low antibacterial activities

Oxyphylline D [Compound 1]
Minimum Inhibitory Concentration (MIC), Escherichia coli [1]: 10 µg/mL
Minimum Inhibitory Concentration (MIC), Bacillus subtilis [2]: 25 µg/mL
Minimum Inhibitory Concentration (MIC), Pseudomonas aeruginosa [3]: 50 µg/mL
Minimum Inhibitory Concentration (MIC), Salmonella typhi [4]: 25 µg/mL
Minimum Inhibitory Concentration (MIC), Shigella flexeneri [5]: 50 µg/mL
Minimum Inhibitory Concentration (MIC), Staphylococcus aureus [6]: 25 µg/mL
Antibacterial activity (in words) [7]: low antibacterial activities

nummularin-C [Compound 2]
Minimum Inhibitory Concentration (MIC), Escherichia coli [1]: 10 µg/mL
Minimum Inhibitory Concentration (MIC), Bacillus subtilis [2]: 25 µg/mL
Minimum Inhibitory Concentration (MIC), Pseudomonas aeruginosa [3]: 100 µg/mL
Minimum Inhibitory Concentration (MIC), Salmonella typhi [4]: 10 µg/mL
Minimum Inhibitory Concentration (MIC), Shigella flexeneri [5]: 100 µg/mL
Minimum Inhibitory Concentration (MIC), Staphylococcus aureus [6]: 25 µg/mL
Antibacterial activity (in words) [7]: low antibacterial activities
